Assay results reported in ChEMBL document CHEMBL5390209, “Spinosyn A and Its Derivative Inhibit Colorectal Cancer Cell Growth via the EGFR Pathway” (J Nat Prod, 2023).
The source made the active and inactive calls. The calls are words filed in the database; no cut-off is given here.

Legend:
LoVo = test: Inhibition of colony formation in human LoVo cells at 6 uM incubated for 14 days by crystal violet staining based colony formation assay; assay type: functional, cell-based; settings: time 14.0 day
[1] = Toxicity in human HT-29 cells xenografted Balb/c mouse assessed as change in spleen pathology at 5 mg/kg/day, ip administrated for every other day and measured after 28 days; assay type: organism-based; settings: in vivo, 672 h, time 28 day
HT-29 [2] = test: Antitumor activity against human HT-29 cells xenografted Balb/c mouse assessed as reduction in tumor cell density at 5 mg/kg/day, ip administrated for every other day and measured after 28 days by Hematoxylin and Eosin staining based method; assay type: functional, organism-based; settings: time 28.0 day
[3] = target: Epidermal growth factor receptor (Homo sapiens) (UniProt P00533); test: Inhibition of EGFR in human HT-29 cells assessed as reduction in Erk1/2 phosphorylation level at 15 uM by Western blot analysis; assay type: cell-based; settings: time 3-15 hrs, TDE = time-dependent effect
Epidermal growth factor receptor (Homo sapiens), sequence (P00533 whole entry): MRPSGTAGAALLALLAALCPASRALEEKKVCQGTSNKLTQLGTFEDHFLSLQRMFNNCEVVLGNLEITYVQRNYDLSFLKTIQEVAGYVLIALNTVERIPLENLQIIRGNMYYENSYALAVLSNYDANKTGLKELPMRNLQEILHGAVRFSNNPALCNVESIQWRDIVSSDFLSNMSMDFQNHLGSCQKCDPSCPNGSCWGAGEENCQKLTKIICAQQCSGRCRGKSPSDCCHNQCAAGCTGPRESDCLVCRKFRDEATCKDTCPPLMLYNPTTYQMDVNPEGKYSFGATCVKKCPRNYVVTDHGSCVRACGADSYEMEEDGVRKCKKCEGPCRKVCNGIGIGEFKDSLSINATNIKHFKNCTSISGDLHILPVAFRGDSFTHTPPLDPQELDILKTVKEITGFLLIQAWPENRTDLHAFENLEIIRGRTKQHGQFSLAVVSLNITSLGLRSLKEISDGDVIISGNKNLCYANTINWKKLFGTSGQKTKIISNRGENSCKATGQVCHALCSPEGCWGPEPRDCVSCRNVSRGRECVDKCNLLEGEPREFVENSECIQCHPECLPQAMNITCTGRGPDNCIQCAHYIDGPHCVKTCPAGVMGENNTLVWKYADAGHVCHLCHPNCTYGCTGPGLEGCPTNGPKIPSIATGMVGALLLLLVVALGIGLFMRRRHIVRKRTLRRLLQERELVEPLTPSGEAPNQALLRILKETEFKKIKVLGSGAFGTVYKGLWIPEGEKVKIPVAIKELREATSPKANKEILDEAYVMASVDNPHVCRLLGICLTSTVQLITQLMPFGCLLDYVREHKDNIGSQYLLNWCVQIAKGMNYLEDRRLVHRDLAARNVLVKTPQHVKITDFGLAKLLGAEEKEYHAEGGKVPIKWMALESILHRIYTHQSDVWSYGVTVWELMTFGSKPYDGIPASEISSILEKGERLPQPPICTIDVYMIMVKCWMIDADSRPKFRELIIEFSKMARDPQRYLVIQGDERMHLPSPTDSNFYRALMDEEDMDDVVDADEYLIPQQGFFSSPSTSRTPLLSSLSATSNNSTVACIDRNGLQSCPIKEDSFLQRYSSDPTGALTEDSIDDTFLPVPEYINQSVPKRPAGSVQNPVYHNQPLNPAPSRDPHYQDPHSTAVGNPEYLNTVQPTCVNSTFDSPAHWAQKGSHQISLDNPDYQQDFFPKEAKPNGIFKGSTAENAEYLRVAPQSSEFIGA

[4] = Toxicity in human HT-29 cells xenografted Balb/c mouse assessed as change in body weight at 2.5 mg/kg/day, ip administrated for every other day and measured after 6 days; assay type: organism-based; settings: in vivo, 144 h, time 6 day
HT-29 [5] = test: Antitumor activity against human HT-29 cells xenografted Balb/c mouse assessed as inhibited tumor growth at 2.5 mg/kg/day, ip administrated for every other day and measured after 6 days; assay type: functional, organism-based; settings: time 6.0 day
[6] = target: Epidermal growth factor receptor (Homo sapiens) (UniProt P00533); test: Inhibition of EGFR in human HT-29 cells assessed as reduction in MEK1/2 phosphorylation level at 0.5 to 2 uM incubated for 24 hrs by Western blotting analysis; assay type: cell-based; settings: dose 0.5-2 µM
[7] = target: Epidermal growth factor receptor (Homo sapiens) (UniProt P00533); test: Inhibition of EGFR in human HT-29 cells assessed as reduction in Erk1/2 phosphorylation level at 0.5 to 2 uM incubated for 24 hrs by Western blotting analysis; assay type: cell-based; settings: dose 0.5-2 µM
[8] = Toxicity in human HT-29 cells xenografted Balb/c mouse assessed as change in heart pathology at 2.5 mg/kg/day, ip administrated for every other day and measured after 28 days; assay type: organism-based; settings: in vivo, 672 h, time 28 day
HT-29 [9] = test: Antitumor activity against human HT-29 cells xenografted Balb/c mouse assessed as reduction in tumor cell density at 2.5 mg/kg/day, ip administrated for every other day and measured after 28 days by Hematoxylin and Eosin staining based method; assay type: functional, organism-based; settings: time 28.0 day
SW480 [10] = test: Inhibition of colony formation in human SW480 cells at 0.75 uM incubated for 14 days by crystal violet staining based colony formation assay; assay type: functional, cell-based; settings: time 14.0 day
DLD-1 = test: Inhibition of colony formation in human DLD-1 cells at 0.75 uM incubated for 14 days by crystal violet staining based colony formation assay; assay type: functional, cell-based; settings: time 14.0 day
[11] = target: Receptor tyrosine-protein kinase erbB-2 (Homo sapiens) (UniProt P04626); test: Inhibition of HER2 in human HT-29 cells at 2 uM by Western blotting analysis; assay type: cell-based; settings: time 3-15 hrs, TDE = time-dependent effect
Receptor tyrosine-protein kinase erbB-2 (Homo sapiens), sequence (P04626 whole entry): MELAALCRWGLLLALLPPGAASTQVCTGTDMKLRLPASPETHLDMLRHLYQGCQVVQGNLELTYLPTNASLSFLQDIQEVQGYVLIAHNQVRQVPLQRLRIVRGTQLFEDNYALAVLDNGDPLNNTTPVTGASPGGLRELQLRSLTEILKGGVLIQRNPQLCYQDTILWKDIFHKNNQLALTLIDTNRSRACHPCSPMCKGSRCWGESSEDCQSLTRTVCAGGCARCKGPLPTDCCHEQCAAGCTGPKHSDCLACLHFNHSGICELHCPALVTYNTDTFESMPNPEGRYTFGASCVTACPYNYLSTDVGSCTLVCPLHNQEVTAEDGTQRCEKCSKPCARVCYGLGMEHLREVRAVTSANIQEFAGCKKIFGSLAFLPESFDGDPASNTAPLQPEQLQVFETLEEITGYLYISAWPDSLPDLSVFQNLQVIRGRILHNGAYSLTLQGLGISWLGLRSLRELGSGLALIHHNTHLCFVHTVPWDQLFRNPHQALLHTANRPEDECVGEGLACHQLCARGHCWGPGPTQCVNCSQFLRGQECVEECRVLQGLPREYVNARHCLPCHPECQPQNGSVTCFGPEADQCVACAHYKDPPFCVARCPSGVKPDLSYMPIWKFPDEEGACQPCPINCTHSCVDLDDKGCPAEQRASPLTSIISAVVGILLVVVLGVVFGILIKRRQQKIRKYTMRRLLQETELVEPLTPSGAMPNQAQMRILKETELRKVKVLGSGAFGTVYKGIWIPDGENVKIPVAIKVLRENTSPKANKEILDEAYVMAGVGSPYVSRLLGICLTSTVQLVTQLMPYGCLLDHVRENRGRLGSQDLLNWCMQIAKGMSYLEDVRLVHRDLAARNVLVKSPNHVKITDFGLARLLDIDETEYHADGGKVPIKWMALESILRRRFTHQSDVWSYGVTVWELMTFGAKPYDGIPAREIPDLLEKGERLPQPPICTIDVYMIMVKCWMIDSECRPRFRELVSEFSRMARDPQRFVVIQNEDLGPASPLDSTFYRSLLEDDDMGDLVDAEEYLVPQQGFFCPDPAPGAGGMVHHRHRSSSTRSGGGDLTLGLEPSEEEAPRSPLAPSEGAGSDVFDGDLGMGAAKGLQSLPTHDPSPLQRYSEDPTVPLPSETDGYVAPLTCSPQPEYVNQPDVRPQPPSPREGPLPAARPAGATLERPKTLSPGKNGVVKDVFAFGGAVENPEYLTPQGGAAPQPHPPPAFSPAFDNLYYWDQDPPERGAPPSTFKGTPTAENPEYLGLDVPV

[12] = Toxicity in human HT-29 cells xenografted Balb/c mouse assessed as change in liver pathology at 2.5 mg/kg/day, ip administrated for every other day and measured after 28 days; assay type: organism-based; settings: in vivo, 672 h, time 28 day
HT-29 [13] = test: Inhibition of HER2 in human HT-29 cells xenografted in BALB/c nude mouse assessed as HER2 protein level in tumor at 2.5 mg/kg/day, ip administrated for every other day and measured after 28 days by Western blotting analysis; assay type: functional, organism-based; settings: time 28.0 day
SW480 [14] = test: Inhibition of colony formation in double EGFR/HER2 knockdown human SW480 cells at 0.75 uM incubated for 14 days by crystal violet staining based colony formation assay; assay type: functional, cell-based; settings: time 14.0 day

inhibition [6] | inhibition [7] | inhibition [11] | Structure (SMILES) | inhibition (LoVo) | Activity [1] | Activity (HT-29 [2]) | inhibition [3] | Activity [4] | inhibition (HT-29 [5]) | Activity [8] | Activity (HT-29 [9]) | inhibition (SW480 [10]) | inhibition (DLD-1) | Activity [12] | inhibition (HT-29 [13]) | Activity (SW480 [14])
 |  |  | CC[C@H]1CCC[C@H](O[C@H]2CC[C@H](N(C)C)[C@@H](C)O2)[C@@H](C)C(=O)C2=C[C@@H]3[C@@H](C=C[C@@H]4C[C@@H](O[C@@H]5O[C@@H](C)[C@H](OC)[C@@H](OC)[C@H]5OC)C[C@@H]34)[C@@H]2CC(=O)O1 [SPINOSYN A] | Active | Non-Toxic | Active | Tde |  |  |  |  |  |  |  |  | 
Active | Active | Tde | CC[C@H]1CCC[C@H](O[C@H]2CC[C@H](N(C)CC(O)CN3CCNCC3)[C@@H](C)O2)[C@@H](C)C(=O)C2=C[C@@H]3[C@@H](C=C[C@@H]4C[C@@H](O[C@@H]5O[C@@H](C)[C@H](OC)[C@@H](OC)[C@H]5OC)C[C@@H]34)[C@@H]2CC(=O)O1 (stereo partly specified) |  |  |  |  | Non-Toxic | Active | Non-Toxic | Active | Active | Active | Non-Toxic | Active | inactive
